# Assay results: patent publication US11214835B1, “Methods and compositions for diagnosis and management of neurodegerative diseases” (UNIVERSITY OF SOUTH FLORIDA, priority 2017, dated 2022)
# Where two headings read alike, the source gives them in different places.
# Assays:
# HT22 cells [1] = experiment: Toxicity of side-chain derivatives to HT22 cells (preliminary data)
# GAS5 [2] = experiment: Binding of side-chain derivatives to GAS5 (preliminary data)
# GAS5 lncRNA = experiment: γ-AApeptide OBOC combinatorial library screen with fluorescein tagged GAS5 oligonucleotide, hits validated in vitro; assay type: binding; details: fluorescein tagged GAS5 oligonucleotide probe, tRNA as control
# Excerpt: The interaction between UPF1 and GAS5 was disrupted using a γ-AApeptide based one-bead-one-compound (OBOC) combinatorial library (Wu H, Li Y, Bai G, Niu Y, Qiao Q, Tipton J D, Cao C, Cai J. gamma-AApeptide-based small-molecule ligands that inhibit Abeta aggregation. Chemical communications. 2014; 50(40):5206-8. doi: 10.1039/c3cc46685j. PubMed PMID: 24158240). The γ-AApeptide is a peptidomimetic with side chains for chemical diversity and are resistant to proteolytic cleavage. To screen the compound library, a probe that contained a fluorescein tagged oligonucleotide was synthesized. The probe spanned 30 nucleotides on either side of the UAA sequences on GAS5 (FIG. 13) The fluorescein was attached to the 5′end (beginning of oligonucleotide probe sequence). The nucleotide sequence within the GAS5 IncRNA that the oligonucleotide probe binds to can be about 100% identical to […] (SEQ ID NO: 4), which is nucleotides 541 to 651 of SEQ ID NO: 1. The underlined regions indicate the UAA that is the target regions. As such, the oligonucleotide probe was designed to flank both sides of these target regions.
# The length of oligonucleotide was required to maintain stem loop structure to specifically bind to GAS5. Further, we modeled the oligonucleotide (RNAfold software) to evaluate its folding and verified absence of any unwanted secondary structures. The backbone was modified by 2′-MOE (2′-O-methoxyethylribose), which protects it from degradation and a fluoroscein tag was attached to the 5′end to aid in screening. The oligonucleotide probe was used to screen 160,000 molecules in the combinatorial library using tRNA as control (as tRNA has similar stem loop secondary structures). […] The compound having a structure according to Formula 3 was determined to have a chemical formula of C68H92N10O9S, a mass of about 1224.6769, and a molecular weight of 1225.6050. The compound having a structure according to Formula 14 was determined to have a chemical formula of C63H85N9O13S, a mass of about 1207.5988, and a molecular weight of 1208.4830. […]
# insulin receptor (IR) = experiment: Insulin receptor levels after intranasal insulin treatment; assay type: in vivo, mouse
# Excerpt: (§1) Diabetes increases the risk for impaired cognitive function and dementia by 47%. Patients with T2DM have cognitive deficits affecting verbal and nonverbal memory, attention, information processing speed, and executive function. To assess the cognitive function with respect to insulin resistance in vivo, aged diabetic mice BKS.Cg-+ Lepr^db/+ Lepr^db/OlaHsd (Older db/db mice from Harlan were used; 11 months—as this mouse model has lower life span) along with their normal age-matched controls. We measured the levels of GAS5 and insulin receptor (IR) in young (4 months) and db/db mice along with their age-matched control mice. The hippocampi of the mice were collected and SYBR Green qPCR was performed. […] Intranasal insulin delivery is a noninvasive method that bypasses the blood-brain barrier and delivers insulin to the brain and the spinal cord. Biologically effective concentrations of insulin can be achieved without systemic side effects.
# (§2) After intranasal administration, insulin and peptide analogues begin to accumulate in the CSF within 30 minutes. Intranasal insulin directly improves learning and memory and has no effect on circulating blood glucose levels. Thus, the effects may reflect activation of neuronal insulin signaling pathways. […] Errors (incorrect arm choices) and escape latency were recorded for each daily trial (FIGS. 3B-3C).
# [3] = system: aged normal and aged diabetic (db/db) mice; experiment: Radial arm water maze (RAWM) after intranasal insulin in aged normal and db/db mice; assay type: in vivo, mouse; details: 1 unit/ml daily for 3 weeks, both normal aged and aged diabetic mice
# Excerpt: as §1, §2
# [4] = after intranasal administration; cited from earlier work
# neurons = experiment: Immunohistochemistry after insulin treatment; assay type: in vivo, mouse
# Description: FIGS. 4A-4B show panels fluorescent microscopic images of the results from Immuno histochemical analysis post insulin treatment in neron cells. The bar in the images of the panel of FIG. 4B is 20 μm.
# After intranasal administration, insulin and peptide analogues begin to accumulate in the CSF within 30 minutes. Intranasal insulin directly improves learning and memory and has no effect on circulating blood glucose levels. Thus, the effects may reflect activation of neuronal insulin signaling pathways. The age-matched control and db/db mice cohorts were treated with intranasal insulin (1 unit/ml, daily for 3 weeks) and the radial arm water maze (RAWM) was used for cognitive assessment. Errors (incorrect arm choices) and escape latency were recorded for each daily trial (FIGS. 3B-3C).
# GAS5 [5] = experiment: GAS5 levels in NDM adipocytes after insulin, real-time qPCR; assay type: cell-based, human; details: about 10 nM, 24 hours
# Excerpt: Depletion of GAS5 decreases glucose uptake: Adipose tissue is the primary target for insulin-mediated glucose uptake. […] To maintain reproducibility over a larger number of experiments, adipose stem cells derived from normal or diabetic patients were purchased from Zenbio (BMI 20-24, Nondiabetic HbA1C 5.9 (hereafter referred as NDM); T2DM HbA1c 8.5 (hereafter referred as DM)). The adipose stem cells (ASC) were differentiated in vitro to mature adipocytes and used in experiments. GAS5 siRNA (10 nM, Ambion 332778, validated; scrambled siRNA as control) was transfected in NDM pre-adipocytes for 48 h, differentiated to mature NDM adipocytes for 8 days and knockdown confirmed by GAS5 SYBR Green qPCR. We determined the effect of GAS5 depletion on glucose uptake by NDM adipocytes. Cells were serum starved, 10 nM insulin was added to cells for 30 minutes and [^3H]-deoxy-2-D-Glucose uptake was measured. Results indicated a decrease in glucose uptake in GAS5 depleted NDM adipocytes ***p<0.001, highly significant using two-tailed students t-test.
# About 10 nM insulin was added to NDM adipocytes for 24 hours. […] Separately, GAS5 was depleted in NDM adipocytes using GAS5 siRNA as described above to evaluate the insulin receptor mediated PI3K→AKT pathway. Whole cell lysates were evaluated by western blot analysis using antibodies against p-AKT and total AKT.
# HT22 cells [6] = details: mouse
compound,measurement,setting,value
CC(C)C[C@H]1CN(CC(N)=O)C(=O)CCSCc2ccc(cc2)C(=O)N[C@@H](C)CN(C(=O)CCc2ccccc2)CC(=O)N[C@@H](CC(C)C)CN(C(=O)CC2CC2)CC(=O)N[C@@H](CCCCN)CN(C(=O)CCC2CCCCC2)CC(=O)N1 [YS-D-66],toxicity to HT22 cells,HT22 cells [1],not toxic to HT22 cells
same,binding to GAS5,GAS5 [2],bound efficiently to GAS5
C[C@H]1CN(C(=O)CC2CC2)CC(=O)N[C@@H](CCC(=O)O)CN(C(=O)CCC2CCCCC2)CC(=O)N[C@@H](Cc2ccccc2)CN(CC(N)=O)C(=O)CCSCc2ccc(cc2)C(=O)N[C@@H](Cc2ccccc2)CN(C(=O)CCC(=O)O)CC(=O)N1 [Formula 14],ability to bind GAS5 (identified and validated from library screen),GAS5 lncRNA,able to bind GAS5
CC(C)C[C@H]1CN(C(=O)CCc2ccccc2)CC(=O)N[C@@H](Cc2ccccc2)CN(C(=O)CC2CC2)CC(=O)N[C@@H](Cc2ccccc2)CN(CC(N)=O)C(=O)CCSCc2ccc(cc2)C(=O)N[C@@H](CCCCN)CN(C(=O)CCc2ccccc2)CC(=O)N1 [YS-D-68],toxicity to HT22 cells,HT22 cells [1],not toxic to HT22 cells
same,binding to GAS5,GAS5 [2],bound efficiently to GAS5
insulin,levels of IR,insulin receptor (IR),did not increase
same,"cognitive performance in RAWM (errors, escape latency)",[3],improved the cognitive performance
same,time to begin to accumulate in the CSF,[4],≤ 30 min
same,neurogenesis,neurons,increased
same,neuronal proliferation,neurons,increased
same,GAS5 levels in NDM adipocytes,GAS5 [5],increase in GAS5 levels
NCCCC[C@H]1CN(C(=O)CCCN)CC(=O)N[C@@H](CCC(=O)O)CN(CC(N)=O)C(=O)CCSCc2ccc(cc2)C(=O)N[C@@H](CCCCN)CN(C(=O)CCC(=O)O)CC(=O)N[C@@H](Cc2ccccc2)CN(C(=O)CCc2ccccc2)CC(=O)N1 [YS-D-70],toxicity to HT22 cells,HT22 cells [6],not toxic to HT22 cells
same,binding to GAS5,GAS5 [2],bound efficiently to GAS5
CC(C)C[C@H]1CN(C(=O)CCc2ccccc2)CC(=O)N[C@@H](Cc2ccccc2)CN(C(=O)CC2CC2)CC(=O)N[C@@H](Cc2ccccc2)CN(CC(N)=O)C(=O)CCSCc2ccc(cc2)C(=O)N[C@@H](Cc2ccccc2)CN(C(=O)CCCN)CC(=O)N1 [YS-D-69],toxicity to HT22 cells,HT22 cells [1],not toxic to HT22 cells
same,binding to GAS5,GAS5 [2],bound efficiently to GAS5
